Experimental data published in patent US20080114005A1, “Fibrate Compounds Having Ppar Agonist Activity” (Dr. Reddy's Laboratories Limited, priority 2004, published 2008).

Legend:
human PPARδ = molecular target: T1, human PPARδ (Homo sapiens, UniProt Q03181); assay: in vitro PPARδ transactivation, GAL4-LBD luciferase reporter in HEK-293 cells; format: cell-based; details: luciferase fold activation relative to untreated cells
T1 construct: expressed in transfected cells; host or cells: HEK-293
T1 sequence (Q03181 211-439 limits assumed): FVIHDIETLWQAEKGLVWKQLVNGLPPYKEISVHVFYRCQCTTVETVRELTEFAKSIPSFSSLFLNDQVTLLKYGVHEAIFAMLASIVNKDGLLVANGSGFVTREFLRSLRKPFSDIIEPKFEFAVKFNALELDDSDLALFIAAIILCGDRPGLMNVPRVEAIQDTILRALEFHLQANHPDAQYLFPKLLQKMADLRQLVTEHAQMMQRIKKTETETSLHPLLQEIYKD
Method: (§1) The following procedure was used for in vitro determination of PPARα, γ and δ transactivation.
(§2) The ligand binding domain of human PPARγ1, PPARα or PPARδ was fused to the C-terminal end of DNA binding domain of yeast transcription factor GAL4 in eukaryotic expression vector. HEK-293 cells were transfected with either of these plasmids, reporter plasmid pGL2 (Gal4×5)˜SV40˜Luc and pAdVantage using superfect (Qiagen, Germany) for 3 hours. pAdVantage vector was used to enhance the luciferase expression. 48 hours after transfection, the cells were harvested and incubated overnight with or without test compounds at different concentrations. The cells were lysed and luciferase activity was measured using the LucLite kit (Packard USA). Luciferase activity was measured as fold activation relative to untreated cells.

human PPARα = molecular target: T2, human PPARα (Homo sapiens, UniProt Q07869); assay: in vitro PPARα transactivation, GAL4-LBD luciferase reporter in HEK-293 cells; format: cell-based; details: luciferase fold activation relative to untreated cells
T2 construct: expressed in transfected cells; host or cells: HEK-293
T2 sequence (Q07869 239-466 limits assumed): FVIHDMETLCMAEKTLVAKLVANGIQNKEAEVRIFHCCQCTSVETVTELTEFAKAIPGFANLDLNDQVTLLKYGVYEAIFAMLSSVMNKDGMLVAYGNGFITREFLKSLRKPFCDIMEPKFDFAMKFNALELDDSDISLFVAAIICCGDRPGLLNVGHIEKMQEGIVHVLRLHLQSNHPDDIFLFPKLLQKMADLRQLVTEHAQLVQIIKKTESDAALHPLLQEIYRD
Description: A number of derivatives of the invention have shown PPAR agonist activity. The following procedure was used for in vitro determination of PPARα, γ and δ transactivation.
as §2

human PPARγ1 = molecular target: T3, human PPARγ1 (Homo sapiens, UniProt P37231); assay: in vitro PPARγ transactivation, GAL4-LBD luciferase reporter in HEK-293 cells; format: cell-based; details: luciferase fold activation relative to untreated cells
T3 construct: expressed in transfected cells; host or cells: HEK-293
T3 sequence (P37231 238-503 limits assumed): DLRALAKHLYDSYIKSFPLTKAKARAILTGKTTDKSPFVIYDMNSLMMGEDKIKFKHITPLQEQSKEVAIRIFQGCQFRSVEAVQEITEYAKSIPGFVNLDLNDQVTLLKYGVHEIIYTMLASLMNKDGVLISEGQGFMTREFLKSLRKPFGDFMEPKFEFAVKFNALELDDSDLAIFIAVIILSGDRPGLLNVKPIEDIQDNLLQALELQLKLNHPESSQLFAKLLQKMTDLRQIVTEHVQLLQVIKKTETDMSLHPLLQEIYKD
Method: as §1, §2

Swiss albino mice = assay: plasma triglyceride lowering activity in Swiss albino mice; format: in vivo; details: 3.0 mg/kg orally for 6 days
Method: The properties of the derivatives of the invention were also evaluated in vivo. The following procedure was used to determine plasma triglyceride and total cholesterol lowering activity in Swiss albino mice.
Male Swiss albino mice (SAM) were obtained from National Institute Nutrition (NIN) and housed in Dr. Reddy's Laboratories Ltd (DRL) animal house. All these animals are maintained under 12 hour light and dark cycle at 25±1° C. Animals were given standard laboratory chow (NIN, Hyderabad, India) and water, ad libitum. SAM of 20-25 grams body weight range were used. See Oliver, P., Plancke, M. O., Marzin, D., Clavey, V., Sauzieres, J and Fruchart, J. C. Effects of fenofibrate, gemfibrozil and nicotinic acid on plasma lipoprotein levels in normal and hyperlipidemic mice, Atherosclerosis. 1988. 70: 107-114, incorporated herein by reference in its entirety. The test compounds can be administered orally to Swiss albino mice at the dose mentioned in table for 6 days. Control mice were treated with vehicle 0.25% Carboxymethylcellulose (CMC; dose 10 ml/kg). The blood samples from the retro-orbital sinus through heparinised capillary in EDTA containing tubes were collected in fed state 1 hour after drug administration on 0 and 6 days of treatment. After centrifugation plasma was separated for triglyceride measurement using commercial kits. See Wieland, O. Methods of Enzymatic analysis. Bergermeyer, H. O., Ed., 1963. 211-214; Trinder, P. Ann. Clin. Biochem. 1969. 6: 24-27, incorporated herein by reference in its entirety. Percent reduction was calculated as per the formula given in Petit, D., Bonnefis, M. T., Rey, C. and Infante, R. Effects of ciprofibrate on liver lipids and lipoprotein synthesis in normo- and hyperlipidemic rats. Atherosclerosis. 1988. 74 : 215-225.

[1] = test system: hypercholesterolemic rat model; assay: plasma triglyceride and cholesterol lowering activity in hypercholesterolemic rat model; format: in vivo, Sprague Dawley rats; details: hypercholesterolemic rats, 3.0 mg/kg orally for 3 days
Method: The following procedure was used to determine plasma triglyceride and cholesterol lowering activity in hypercholesterolemic rat model.
Male Sprague Dawley rats (NIN stock) were bred in DRL animal house. Animals were maintained under 12 hour light and dark cycle at 25±1° C. Rats of 180-200 gram body weight range were used for the experiment. Animals are made hypercholesterolemic by feeding 2% cholesterol and 1% sodium cholate mixed with standard laboratory chow [National Institute of Nutrition (NIN), Hyderabad, India] for 6 days. Throughout the experimental period the animals were maintained on the same diet. The test compounds were administered orally at a dose mentioned in table for 3 days. Control group was treated with vehicle alone (0.25% CMC; 10 ml/kg). The blood samples were collected in fed state 1 hour after drug administration on 0 and 3 days of compound treatment. The blood was collected from the retro-orbital sinus through heparinised capillary in EDTA containing tubes. After centrifugation, plasma sample was separated for total cholesterol, HDL and triglyceride estimations. Measurement of plasma triglyceride, total cholesterol and HDL were done using commercial kits. LDL and VLDL cholesterol can be calculated from the data obtained for total cholesterol, HDL and triglyceride.
The percent reductions in blood sugar/triglycerides/total cholesterol were calculated according to the following formula:
OC=Zero day control group value
OT=Zero day treated group value
TC=Test day control group value
T=Test day treated group value.
The levels of LDL and VLDL cholesterol were calculated according to the formula:
VLDL cholesterol in mg/dl=[Total cholesterol-HDL cholesterol-LDL cholesterol] mg/dl.

PPARδ activation (human PPARδ; test compound at 1 μM): 0.6
PPARδ activation (human PPARδ; test compound at 10 μM): 3.3
PPARα activation (human PPARα; test compound at 1 μM): 5.0
PPARα activation (human PPARα; test compound at 10 μM): 5.7
PPARγ activation (human PPARγ1; test compound at 1 μM): 1.1(87.3)
PPARγ activation (human PPARγ1; test compound at 10 μM): 0.3(85.3)
melting point: 130 to 132 °C
SMILES: CCCc1nn(C)c2c(=O)n(CCOc3cccc(OC(C)(CC)C(=O)O)c3)c(C)nc12 (stereo not drawn) [Example 98, 2-{3-[2-(1,5-Dimethyl-7-oxo-3-propyl-1,7-dihydro-pyrazolo[4,3-d]pyrimidin-6-yl)-ethoxy]-phenoxy}-2-methyl-butyric acid]
% reduction in TG (Swiss albino mice): 65%
Reduction (%) LDL ([1]; LDL cholesterol calculated by formula): 75%
↑HDL ([1]; increase of plasma HDL (under head Reduction (%))): 267%
Reduction (%) TC ([1]; plasma total cholesterol): 67%
Reduction (%) TG ([1]; plasma triglyceride): 81%
